Data published in patent US20030229082A1, “Inhibition of RNA function” (The Regents of the University of California, priority 2002, published 2003).
pKd: −log10 of the molar value. Where two headings read alike, the source gives them in different places.

Key:
[1] = test system: HIV-1 TAR RNA; test: Saturation transfer difference (STD) NMR binding experiment
[2] = test system: HIV-1 TAR RNA; test: NMR line broadening of ligand signals; format: binding
[3] = biological target: A-site RNA; details: value stated for the competitor; read-out: KD of the high affinity drug (competitor) for A-site RNA; cited from earlier work
[4] = test system: Ribosomal A-site RNA; test: Saturation transfer difference (STD) NMR binding experiment; details: for STD signals @ 0.4-0.6 mM drug: Ribosomal A-site RNA
[5] = test system: Ribosomal A-site RNA; test: NMR line broadening of ligand signals; format: binding
[6] = test system: Tat-TAR interaction (TAR with hybrid CycT1-Tat protein); test: Electrophoretic mobility shift assay (EMSA, gel shift); format: binding, HIV-1; details: for Gel Shift Assay: HIV-1 TAR; for prevention of the binding between Tat and TAR (EMSA): concentrations between 0.1 and 1 μM, hybrid CycT1-Tat protein and TAR each at 0.1 μM; for binding to the TAR region: in vitro
Text: RNA Binding Assays In vitro (Electrophoretic Mobility Shift Assay; EMSA)
EMSA is an effective method for determining whether TAR forms a complex with Tat and human cyclin T1. n the presence of TAR, containing the 5′ bulge and central loop, and these proteins, a lower mobility complex was observed on polyacrylamide gels. The lack of higher order complex formation signifies that a compound can block this RNA-protein interaction. […] These phenothiazines are used clinically as antipsychotic, sedative and antiemetic agents.

[7] = test system: HeLa cells; details: human, 3 days
[8] = test system: Tat transactivation via TAR; test: Chloramphenicol acetyl transferase (CAT) assay in HeLa cells, HIV-1 LTR and Tat; details: concentrations between 5 and 20 μM, dose-dependent
[9] = test system: Polio virus loop B RNA; format: binding
[10] = test system: DLS SL1 CA-loop RNA (dimer linkage site stem-loop 1); test: Saturation transfer difference (STD) NMR binding experiment; parameters: species or system HIV-1
[11] = test system: CVB3 loop D RNA; test: as above; parameters: species or system coxsackievirus B3
[12] = test system: Polio virus loop B RNA; format: binding; remark: listed apart in the source
[13] = test system: DLS SL1 CA-loop RNA (dimer linkage site stem-loop 1); test: NMR line broadening of ligand signals; format: binding, HIV-1
[14] = test system: CVB3 loop D RNA; test: NMR line broadening of ligand signals; format: binding, coxsackievirus B3
[15] = test system: Ribosomal A-site RNA; test: TOCSY/NOESY NMR chemical shift mapping; format: binding
[16] = test system: HIV-1 TAR RNA; test: TOCSY/NOESY NMR, structure of the acetylpromazine-TAR complex; format: binding
Method: Five different samples of the 31-nucleotide TAR were prepared: unlabeled, uniformly ^13C,^15N-labeled, type-specifically ^13C,^15N-labeled at G, A or C residues, respectively. All samples were prepared by in vitro transcription using T7 RNA polymerase and a synthetic DNA template and purified as described in Du, et al., Biochemistry 35, 4187 (1996). Acetylpromazine was purchased from Research Diagnostics Inc. Final sample conditions were 1-2 mM RNA in 10 mM sodium phosphate buffer (pH 6.5), 20 mM sodium chloride. Acetylpromazine was added in about two-fold excess over RNA.
The solution structure of the acetylpromazine-TAR complex was determined using a protocol very similar to that previously described by Schmitz, U., et al, (1999) Structure of the phylogenetically most conserved domain of SRP RNA, RNA 5, 1419-1429.
All NMR experiments were performed on Varian Inova 600 MHz spectrometers. Spectra were processed with NMRpipe and analyzed with SPARKY. Homonuclear 2D NOESY spectra in H2O were collected at 10° C. using the SSNOESY pulse sequence.
Due to the large number of intermolecular NOEs, 51, between acetylpromazine and TAR, binding of acetylpromazine to the 5′ bulge is very well defined.
The […] of acetylpromazine inserts between base pairs G26-C39 and A22-U40, preventing continuous stacking of the lower and upper stems as observed in structures induced by argininamide or Tat-peptide. However, another set of base-stacking interactions is created. U23 continues stacking on A22 in the fashion of an A-helix. This is evident by the NOEs from U23 H6 to A22 H2′ and H3′, and from U23 H1′ to A22 H2. Benzene ring II of acetylpromazine is stacked on U40. Stacking of U23 on A22 and benzene ring II on U40 arranges the U23 base and benzene ring II such that they look like an extra base pair continuing helical stacking on the A22-U40 base pair. This “pseudo base-pair” may contribute to the creation of a deeper minor groove (compared to the standard A-helix) to accommodate the aliphatic moiety of acetylpromazine. […]

[17] = test system: Polio virus loop B RNA; format: binding; details: first part of cell TOCSY/NOESY
[18] = test system: DLS SL1 CA-loop RNA (dimer linkage site stem-loop 1); test: TOCSY/NOESY NMR chemical shift mapping; format: binding, HIV-1
[19] = biological target: A-site RNA; test: STD NMR competition experiment with paromomycin; format: binding; details: calculated from IC50 of the STD competition with paromomycin by Cheng and Prusoff correction; read-out: KD for the interaction with A-site RNA
[20] = test system: RNA targets (ribosomal A-site, polio virus, DLS SL1, CVB3); format: binding; details: specific tertiary RNA motifs, loops and bulges

OCCNCCCN1c2ccccc2Sc2ccc(Cl)cc21 [(7)]
STD signals @ 0.4-0.6 mM drug [1]: yes
Line broadening [2]: yes

NC[C@@H]1O[C@H](O[C@H]2[C@@H](O)[C@H](O[C@@H]3[C@@H](O)[C@H](N)C[C@H](N)[C@H]3O[C@H]3O[C@H](CO)[C@@H](O)[C@H](O)[C@H]3N)O[C@@H]2CO)[C@H](N)[C@@H](O)[C@@H]1O [paromomycin]
pKd [3]: 6.70

CN(C)CCCN1c2ccccc2Sc2ccccc21 [(5)]
STD signals @ 0.4-0.6 mM drug [4]: yes
Line broadening [5]: yes
Gel Shift Assay [6]: negative

CCSc1ccc2c(c1)N(CCCN1CCN(C)CC1)c1ccccc1S2 [thiethylperazine]
prevention of the binding between Tat and TAR (EMSA) [6]: did not
binding to the TAR region [6]: not found to have such binding activity

CN(C)CCCN1c2ccccc2Sc2ccccc21 [(3)]
STD signals @ 0.4-0.6 mM drug [4]: no
Line broadening [5]: yes
Gel Shift Assay [6]: negative

CN1CCN(CCCN2c3ccccc3Sc3ccc(Cl)cc32)CC1 [prochlorperazine]
prevention of the binding between Tat and TAR (EMSA) [6]: prevent completely
binding to the TAR region [6]: bind
concentration at which significant cellular toxicity resulted [7]: > 20 µM
inhibition of Tat transactivation [8]: up to 6 fold

Clc1ccc2c(c1)N(CCCN1CCCCC1)c1ccccc1S2 [(9)]
STD signals @ 0.4-0.6 mM drug [1]: yes
Line broadening [2]: little

CC(=O)c1ccc2c(c1)N(CCCN(C)C)c1ccccc1S2 [(1), 10-[3-(dimethylamino)-propyl)phenothiazin-2-yl methyl ketone]
STD signals @ 0.4-0.6 mM drug [4]: yes
STD signals @ 0.4-0.6 mM drug [1]: yes
STD signals @ 0.4-0.6 mM drug [9]: yes
STD signals @ 0.4-0.6 mM drug [10]: yes
STD signals @ 0.4-0.6 mM drug [11]: yes
Line broadening [5]: yes
Line broadening [2]: yes
Line broadening [12]: yes
Line broadening [13]: yes
Line broadening [14]: yes
NOESY data [15]: yes/yes
TOCSY data [15]: yes/yes
binding site on TAR in solution (NMR-derived structural model) ([16]; 5′ bulge): binds to the 5′ bulge of TAR
TOCSY data ([16]; first part of cell TOCSY/NOESY): yes/yes
NOESY data ([16]; second part of cell TOCSY/NOESY): yes/yes
TOCSY data [17]: yes/no data
TOCSY data [18]: yes/no data
Gel Shift Assay [6]: positive
inhibition of the interaction of TAR and Tat ([6]; compound at 100 nM, TAR and Tat both at 100 nM): completely inhibited
prevention of the binding between Tat and TAR (EMSA) [6]: prevent completely
binding to the TAR region [6]: bind
pKd [19]: ~5.00
binding to RNA motifs by chemical shift mapping (TOCSY) [20]: binds to specific tertiary RNA motifs such as loops and bulges

CN(C)CCCN1c2ccccc2Sc2ccccc21 [(2)]
STD signals @ 0.4-0.6 mM drug [4]: yes
Line broadening [5]: yes
Gel Shift Assay [6]: positive

CN1CCN(CCCN2c3ccccc3Sc3ccc(C(F)(F)F)cc32)CC1 [trifluoperazine]
inhibitory effect on the RNA of the ribosomal A-site ([4]; method not specified): inhibitory effect
prevention of the binding between Tat and TAR (EMSA) [6]: did not
binding to the TAR region [6]: not found to have such binding activity

CN(C)CCCN1c2ccccc2Sc2ccccc21 [(6)]
STD signals @ 0.4-0.6 mM drug [4]: no
Line broadening [5]: little
Line broadening [2]: yes
Gel Shift Assay [6]: positive

CN(C)CCCN1c2ccccc2Sc2ccc(Cl)cc21 [chlorpromazine, 2-chloro-10-(dimethylaminopropyl)phenothiazine]
prevention of the binding between Tat and TAR (EMSA) [6]: prevent completely
binding to the TAR region [6]: bind

Clc1ccc2c(c1)N(CCCn1ccnc1)c1ccccc1S2 [(11)]
STD signals @ 0.4-0.6 mM drug [1]: yes

CN(C)CCCN1c2ccccc2Sc2ccccc21 [(4)]
STD signals @ 0.4-0.6 mM drug [4]: yes
Line broadening [5]: yes
Gel Shift Assay [6]: positive

Clc1ccc2c(c1)N(CCCNCc1ccccc1)c1ccccc1S2 [(10)]
STD signals @ 0.4-0.6 mM drug [1]: yes
Line broadening [2]: little

CCCCNCCCN1c2ccccc2Sc2ccc(Cl)cc21 [(8)]
STD signals @ 0.4-0.6 mM drug [1]: yes
Line broadening [2]: yes
